Laboratory results published in patent US7265109B2, “Thiazole derivatives” (Hoffmann-La Roche Inc., priority 2003, dated 2007).

target: T1, recombinant mouse NPY5-receptor (mNPY5) (Mus musculus, UniProt O70342); assay: Radioligand competition binding; conditions: membranes of HEK293 cells expressing mNPY5; 100 pM [125I]labelled peptide YY (PYY); 1 h at 22° C.; read-out: NPY5-R (mouse) IC50
T1 construct: The full-length cDNA encoding the mouse NPY5 (mNPY5) receptor was amplified from mouse brain cDNA; expressed in transfected cells; membrane preparation
T1 sequence (O70342 1-466): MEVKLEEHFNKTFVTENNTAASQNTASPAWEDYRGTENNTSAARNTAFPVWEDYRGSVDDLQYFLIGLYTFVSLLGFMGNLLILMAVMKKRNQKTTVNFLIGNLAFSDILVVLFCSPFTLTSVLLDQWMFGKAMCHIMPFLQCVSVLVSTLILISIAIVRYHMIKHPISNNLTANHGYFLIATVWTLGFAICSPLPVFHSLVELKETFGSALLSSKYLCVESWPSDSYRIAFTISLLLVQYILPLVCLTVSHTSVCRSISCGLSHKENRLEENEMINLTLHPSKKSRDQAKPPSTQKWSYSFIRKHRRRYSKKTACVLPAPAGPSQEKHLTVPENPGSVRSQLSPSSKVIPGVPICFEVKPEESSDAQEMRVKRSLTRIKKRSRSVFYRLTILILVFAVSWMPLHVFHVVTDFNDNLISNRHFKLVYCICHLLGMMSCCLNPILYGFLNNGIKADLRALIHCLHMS
Source text: The full-length cDNA encoding the mouse NPY5 (mNPY5) receptor was amplified from mouse brain cDNA using specific primers, designed based on the published sequence, and Pfu DNA-Polymerase. The amplification product was subcloned into the mammalian expression vector pcDNA3 using Eco RI and XhoI restriction sites. Positive clones were sequenced and one clone, encoding the published sequence was selected for generation of stable cell clones.
Human embryonic kidney 293 (HEK293) cells were transfected with 10 μg mNPY5 DNA using the lipofectamine reagent. Two days after transfection, geneticin selection (1 mg/ml) was initiated and several stable clones were isolated. One clone was further used for pharmacological characterization.
Human embryonic kidney 293 cells (HEK293), expressing recombinant mouse NPY5-receptor (mNPY5) were broken by three freeze/thawing cycles in hypotonic Tris buffer (5 mM, pH 7.4, 1 mM MgCl2), homogenized and centrifuged at 72,000×g for 15 min. The pellet was washed twice with 75 mM Tris buffer, pH 7.4, containing 25 mM MgCl2 and 250 mM sucrose, 0.1 mM phenylmethylsulfonylfluoride and 0.1 mM 1,10-pheneanthrolin, resuspended in the same buffer and stored in aliquots at −80° C. Protein was determined according to the method of Lowry using bovine serum albumine (BSA) as a standard. […]

`Cc1ccccc1C(=O)c1cnc(NCC2CCN(S(=O)(=O)N(C)C)CC2)s1` [Example 18, 4-{[5-(2-Methyl-benzoyl)-thiazol-2-ylamino]-methyl}-piperidine-1-sulfonic acid dimethylamide] was tested. Which IC50 did it give?
Its IC50 is 0.85 nM.

With `CCc1ccccc1C(=O)c1cnc(NC2CCN(S(=O)(=O)c3cccs3)CC2)s1` [Example 32, (2-Ethyl-phenyl)-{2-[1-(thiophene-2-sulfonyl)-piperidin-4-ylamino]-thiazol-5-yl}-methanone] as the compound, how does the IC50 read?
The IC50 was 0.75 nM.

For `Cc1ccccc1C(=O)c1cnc(NC2CCN(S(=O)(=O)c3cccs3)CC2)s1` [Example 41, {2-[1-(Thiophene-2-sulfonyl)-piperidin-4-ylamino]-thiazol-5-yl}-o-tolyl-methanone], which IC50 is on record?
Its IC50 is 0.77 nM.
